Results taken from article PMC6017477, “In Vitro ADME Properties of Two Novel Antimicrobial Peptoid-Based Compounds as Potential Agents against Canine Pyoderma” (Molecules : A Journal of Synthetic Chemistry and Natural …, 2018).
Non-standard residues stand in square brackets, D forms with d. Residues, ends and D or L forms follow the SMILES beside them. N(1-naphthylmethyl)Gly = O=C(O)CNCc1cccc2ccccc12; N(4-MeBn)Gly = Cc1ccc(CNCC(=O)O)cc1; NBuGly = CCCCNCC(=O)O; Nlys = NCCCCNCC(=O)O

Experiments:
[1] = In vitro drug release from formulations, Franz cell with cellulose membrane; assay type: physicochemical
Procedure: Release was evaluated as function of the amount of peptide diffused through a cellulose membrane in the receptor of a Franz cell and detected via RP-HPLC from 0 to 8 h.
An oil-in-water cream and an ointment were prepared as described by Danish Health and Medicines Authority. For the oil-in-water cream, ingredients of the oil phase (Table 3) were melted on a water bath at 70 °C and mixed with the water phase, which was previously brought to boil and cooled down to 65–70 °C. The mixture was stirred until cooled. The ointment formulation was prepared by mixing melted Vaseline (80%) with paraffin oil (20%) on a water bath and allowed to cool under stirring. The cold method was used for preparation of the 20% (w/w) poloxamer gel, where the poloxamer powder was dissolved in purified water at 4 °C and subsequently left overnight at 2–8 °C to stabilize. All formulations were stored at 4 °C for maximum seven days before use. […] For the hydrogel, the compounds dissolved in water were mixed with the cold poloxamer solution before gelling at room temperature.
Approximately 200 µL of each formulation was filled into the donor chambers of the Franz cells via a 1 mL syringe ensuring contact with the cellulose membrane separating the donor compartment from the receptor compartment. The donor compartment was maintained at room temperature (25 ± 1 °C) and the membrane diffusion area was 1.57 cm^2. […] The receptor medium (3 mL PBS, pH 7.4) was stirred using magnetic stirring and thermo-regulated to 36 °C by a water jacket. Samples (200 μL) were collected from the receptor compartment through the sampling port over 8 h, and the withdrawn volume was replaced with an equal volume of buffer at every time point. The samples were analyzed by a Waters 600E RP-HPLC equipped with Empower 3 software (Waters Corporation, Milford, MA, USA): 30 min run time with 20 min linear gradient from 0.1% (v/v) TFA in water to 30% (v/v) ACN:H2O with 0.1% (v/v) TFA (90:10). […] Experiments were performed in duplicate.

pronase [2] = settings: 37 °C, RP-HPLC peak areas
α-chymotrypsin = α-chymotrypsin (Bos taurus, UniProt P00766)
Procedure: (§1) Solutions, concentrations, and reaction temperatures were selected according to manufacturer’s recommendations for total peptide digestion. A stock solution of 1 mM trypsin was prepared in 1 mM Tris HCl buffer solution containing 20 mM Ca^2+. […] Reaction was conducted at 37 °C for 6 h. Chymotrypsin was solubilized at 10 mg/mL in 1 mM HCl solution containing 2 mM CaCl2. […] Chymotrypsin reaction was conducted in 100 mM Tris HCl containing 10 mM CaCl2, pH 7.8 at 30 °C. […] At time 0, 3, and 6 h, 50 µL aliquots were removed for RP-HPLC analysis (see supplementary Materials, Section S3).

pronase [3] = assay: in vitro; settings: pronase from Streptomyces griseus, pH 8
dog plasma proteins [4] = assay: Plasma protein binding, rapid equilibrium dialysis; assay type: in vitro ADME
Procedure: (§2) The plasma protein binding properties of candidate drugs can influence their efficacy, safety, and distribution. The fraction of peptoid bound to proteins of plasma collected from dogs was determined using rapid equilibrium dialysis.
(§3) Plate inserts comprised two side-by-side chambers separated by a dialysis membrane (8K MWCO). The chambers contained […] plasma or 350 µL dialysis buffer (PBS buffer pH 7.4), respectively. Dogplasma lot was identical to the one used in the plasma stability assay. […] Plates were sealed and incubated at 37 °C for 4 h on a shaker. Each test was run in quadruplicate in dog plasma. Upon completion of the assay, the plasma protein binding was determined by protein precipitation with ACN of both plasma and PBS, and drug levels were quantified via LC-MS/MS as described above. The percentage of bound compounds was determined from peak areas using Equations (3) and (4):% free = (concentration buffer chamber/concentration plasma chamber) × 100%(3) % bound = 100% − % free(4)

[5] = Plasma protein binding, rapid equilibrium dialysis; assay type: in vitro ADME, dog; settings: Beagle, dog; for recovery at 4 h, 30.8 µM: pH 7.4, % Average Recovery; for fraction unbound at 4 h, 30.8 µM: plasma
Procedure: as §2, §3

in vitro [6] = settings: Beagle, dog
Procedure: Plasma stability was determined by incubation of a known concentration of the peptoid/hybrid of interest with dog plasma up to 60 min at 37 °C and analyzing the concentration of the peptide in the supernatant by LC-MS/MS after protein precipitation. Results are presented as average of triplicates from a single donor.
Dog plasma was collected from a single Beagle dog at the research facilities of Zoetis Animal Health (Kalamazoo, MI, USA) and frozen immediately until use. […] Test compounds were added to plasma diluted 1:1 with PBS buffer pH 7.4 and preheated for 5 min at 37 °C. Samples were removed at 0, 5, 10, 20, 30, and 60 min. The reaction was stopped by protein precipitation by adding a 9:1 (v/v) ACN:MeOH mixture followed by centrifugation at 10,000 rpm for 5 min, and the remaining amount of intact test compounds in the supernatant was quantified via API Sciex 4000Q LC-MS/MS (Framingham, MA, USA) (coupled with an HPLC column to filter off the plasma proteins—see Supplementary Materials, Section S6) upon completion of the assay. Experiments were performed in quadruplicate.

in vitro [7] = settings: liver microsomes
Text: Liver microsomal assay is used to determine hepatic intrinsic clearance of a drug and identification and profile of metabolites across species. Evaluation of microsomal stability of compounds in different species is common procedure in the drug discovery process to evaluate different metabolites in case of instability.
Dog and human microsomes were obtained from XenoTech LLC (Kansas City, KS, USA) and reconstituted in buffer containing D-(L)-isocitrate trisodium salt and 10 U/mL isocitrate dehydrogenase type IV glycerol solution (procine). […] The reaction was initiated by adding NADPH and substrate to reconstituted microsomes. A final concentration of 1 µM substrate was incubated with 0.5 mg/mL microsomes in the presence of 1 mM NADP^+ in 100 mM PBS with 1 mM MgCl2. Samples were collected at 0, 5, 10, 20, 30, and 60 min. The reaction was conducted at 37 °C before termination by addition of ACN, and analysis was conducted by LC-MS/MS (similar to the method described above). Controls with no drug and with no microsome regeneration system (buffer only) were included. All samples were prepared in triplicate. The rate of degradation by metabolism was measured on the basis of the difference of substrate concentration remaining at every time point. Metabolic half-lives were calculated as mentioned above.

trypsin = molecular target: T1, trypsin (Bos taurus, UniProt P00760); assay: Stability to proteases: trypsin
T1 sequence (P00760 24-246): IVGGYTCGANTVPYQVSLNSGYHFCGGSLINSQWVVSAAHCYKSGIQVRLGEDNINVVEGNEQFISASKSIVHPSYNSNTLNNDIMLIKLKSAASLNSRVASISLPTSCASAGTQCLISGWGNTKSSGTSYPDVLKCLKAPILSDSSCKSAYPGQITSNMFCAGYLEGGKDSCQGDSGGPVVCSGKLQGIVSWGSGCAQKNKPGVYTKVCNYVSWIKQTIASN
Procedure: as §1, with “Reaction was conducted at 37 °C for 6 h.” left out

[8] = tested on: Staphylococcus pseudintermedius; assay type: cell-based; settings: irrespective of the strain being MSSP or MRSP; Mueller-Hinton broth, 35 °C, 16–20 h
Procedure: Assays were performed by microbroth dilution of test compounds in Mueller-Hinton broth (MHB) in microtiter plates (Corning 96-well clear polypropylene round bottom plates, non-treated) according to the Clinical and Laboratory Standard Institute guidelines. The compounds were tested in concentrations ranging from 1 to 64 μg/mL (1, 2, 4, 8, 16, 32, 64 μg/mL). Briefly, bacteria were streaked on blood agar plates and incubated overnight at 37 °C. From these plates, colonies were suspended in saline solution and adjusted by nephelometer to obtain turbidity equivalent to a 0.5 McFarland standard. The suspension was diluted 1:100 in sterile 0.9% (w/v) saline, and 50 μL of this suspension was transferred to each well of the microtiter plate containing 50 μL of peptide solution in water, resulting in a concentration of 5 × 10^5 CFU/well. The microtiter plate was sealed and incubated at 35 °C for 16–20 h. Results were read by visual inspection.

in vitro [9] = assay type: cell-based; settings: dog
Text: B1 and D2 were designed on the basis that the majority of antimicrobial peptides are cationic and hydrophobic. We envisaged that short linear peptide-peptoid hybrids consisting of cationic lysines and hydrophobic peptoid residues would result in derivatives with potent antibacterial activity and low cytotoxicity. […] Repeated experiments on different days with different human blood samples confirmed the results.

dog plasma proteins [10] = settings: stated in the method for the control; no reference given; cited from earlier work
[11] = Day 0 versus Day 1, UV-UPLC
Procedure: 5-60% ACN in 2 minutes, 0.1% Formic Acid
(Waters Acquity UV-UPLC, C18 column, 2.1x54 mm, T=60°C, equilibration time= 0.1 min)
Table S4 Final gradient elution UV-UPLC method used for the LC-MS/MS experiments. %A and %B indicate the
percentage of the mobile phases mixed at the given time. […]

human red blood cells = assay type: cell-based; settings: 37 °C, 1 h
Procedure: EC10 and EC50 values represent concentrations that result in 10 and 50% hemolysis, respectively. […] Briefly, two-fold serial dilutions (1 to 256 μg/mL) were incubated in PBS with a suspension of freshly withdrawn human red blood cells in PBS in 96-well v-shaped microtiter plates at 37 °C for 1 h covered with Microseal foil to avoid evaporation, and transferred to 96-well flat bottomed microtiter plates. The release of hemoglobin was detected by measuring the absorbance at 414 nm by a UV spectrophotometer (VERSAmax™ Tunable Microplate Reader, Molecular Devices, San José, CA, USA). PBS and melittin were used as negative and positive controls, respectively. All human blood samples were obtained after informed consent of the voluntary donors upon understanding of the research purposes, within local hospitals and according to local guidelines.

[12] = UV-UPLC detection limit 1 µg/L
Procedure: The experiment was repeated twice.
The experiment was conducted in duplicate.

[13] = Beagle, dog, 4 h, 30.8 µM, pH 7.4
[14] = pH 7.4, % Unbound (free fraction)
[15] = dog plasma, 4 h incubation, 37 °C

## CCCCN(CC(N)=O)C(=O)CN(CCCCN)C(=O)CN(Cc1cccc2ccccc12)C(=O)CN(CCCCN)C(=O)CN(Cc1ccc(C)cc1)C(=O)CN(Cc1cccc2ccccc12)C(=O)CN(CCCCN)C(=O)CNCCCCN [Compound D2] (H-[Nlys][Nlys][N(1-naphthylmethyl)Gly][N(4-MeBn)Gly][Nlys][N(1-naphthylmethyl)Gly][Nlys][NBuGly]-NH2)
[1]; 20% poloxamer gel, 8 h
  release from 20% poloxamer gel after eight hours: no detectable release
[1]; oil-in-water cream
  release kinetics from oil-in-water cream: zero-order kinetics
[1]; ointment, 8 h
  release from ointment after eight hours: no detectable release
Pronase [2]
  degradation after 24 h incubation with pronase: shows stability
α-chymotrypsin
  degradation after α-chymotrypsin exposure: no degradation
Pronase [3]
  metabolised at 24 h, 0.2 µM: 0.2%
Dog plasma proteins [4]; [13]
  % Average Recovery: 70.8%
Dog plasma proteins [4]; Beagle, dog, plasma, 4 h, 30.8 µM, pH 7.4
  Bound to plasma proteins: 98.6%
[5]
  recovery at 4 h, 30.8 µM: > 70%
[5]; [14]
  fraction unbound at 4 h, 30.8 µM: 0.0143
[5]; pH 7.4, Bound to plasma proteins
  fraction unbound at 4 h, 30.8 µM: < 0.02
In vitro [6]; plasma, pH 7.4, Half-life in plasma (dog), dog plasma, 37 °C, incubation up to 60 min, LC-MS/MS
  half-life: > 2 h
In vitro [7]; dog
  half-life: > 2 h
In vitro [7]; human
  half-life: > 2 h
In vitro [7]
  remaining at 1 h, 1 µM: 77%
trypsin
  degradation after 24 h of incubation with trypsin: no degradation
[8]
  Minimum inhibitory concentration (MIC): 2 to 4 µg/mL
In vitro [9]
  hemolysis at 150 µM: 22%

## CS(=O)(=O)CC(=O)N1CC2(C1)OCc1cc(C3=NO[C@@](c4cc(Cl)c(F)c(Cl)c4)(C(F)(F)F)C3)ccc12 [Control, sarolaner, reference compound]
Dog plasma proteins [10]
  protein bound (known value of the control compound): > 99%
Dog plasma proteins [4]; [15]
  % Unbound (free fraction): 0.27%
  Bound to plasma proteins: 99.7%
Dog plasma proteins [4]; dog plasma, 4 h incubation, n = 4
  % Average Recovery: 67.1%

## CCCCN(CC(=O)N[C@@H](CCCCN)C(=O)N(CC(=O)N(CC(=O)N(CC(N)=O)Cc1cccc2ccccc12)Cc1ccc(C)cc1)Cc1cccc2ccccc12)C(=O)[C@H](CCCCN)NC(=O)[C@@H](N)CCCCN [Compound B1] (H-KK[NBuGly]K[N(1-naphthylmethyl)Gly][N(4-MeBn)Gly][N(1-naphthylmethyl)Gly]-NH2)
α-chymotrypsin
  degradation after α-chymotrypsin exposure: no degradation
Pronase [3]
  metabolised at 24 h, 0.2 µM: 38%
Dog plasma proteins [4]; [13]
  % Average Recovery: 75.6%
[5]
  recovery at 4 h, 30.8 µM: > 70%
[5]; [14]
  fraction unbound at 4 h, 30.8 µM: 0.0016
[11]
  stability in 50% transcutol in acetate buffer pH 5: stable
Human red blood cells
  EC50, concentration resulting in 50% hemolysis of erythrocytes: 219 µg/mL
In vitro [6]; dog plasma diluted 1:1 with PBS, pH 7.4, Half-life in plasma (dog), dog plasma, 37 °C, incubation up to 60 min, LC-MS/MS
  half-life: ~0.5 h
In vitro [6]; dog plasma diluted 1:1 with PBS, pH 7.4, stability to plasma proteases (half-life), in hours
  half-life: 0.5 h
In vitro [7]; dog
  half-life at 1 µM: > 2 h
In vitro [7]; human
  half-life at 1 µM: > 2 h
In vitro [7]
  remaining at 1 h, 1 µM: 100%
trypsin; isolated enzyme trypsin
  metabolised at 24 h, 1 mg/mL: 6%
[12]
  skin penetration from 50% transcutol formulation after 24 h: No penetration
[8]
  Minimum inhibitory concentration (MIC): 2 to 4 µg/mL
In vitro [9]
  hemolysis at 150 µM: 45%
